A word on the IC50: it is the concentration at which inhibition is half-maximal.

Results on one compound are retold here after article PMC7496275, “Pentathiepins: A Novel Class of Glutathione Peroxidase 1 Inhibitors that Induce Oxidative Stress, Loss of Mitochondrial Membrane Potential and Apoptosis in Human Cancer Cells” (Chemmedchem, 2020).

The test system of test [1] is HL-60 cells. Nature of the test: Cell morphology after incubation. It is filed as cell-based, human. The conditions noted are these: 25 μM, 6 h.
For test [2], the target named is T1, bovine erythrocyte GPx (Bos taurus, UniProt P00435).
T1 construct: 180 μL of a bovine erythrocyte GPx1 solution (0.125 U/mL); purchased Sigma Aldrich (Taufkirchen, Germany); host or cells: bovine erythrocytes
T1 sequence (P00435 1-205): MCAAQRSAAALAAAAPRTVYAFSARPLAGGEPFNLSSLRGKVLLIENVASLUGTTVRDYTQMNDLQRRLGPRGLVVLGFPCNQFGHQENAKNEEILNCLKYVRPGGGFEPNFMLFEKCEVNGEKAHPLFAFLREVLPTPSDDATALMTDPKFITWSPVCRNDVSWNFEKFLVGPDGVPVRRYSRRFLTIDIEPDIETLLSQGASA
Put plainly: GPx enzyme activity assay (TBHP/GSH, GR/NADPH coupled). It is filed as biochemical. How it is done:
The ability of pentathiepins to inhibit the bovine erythrocyte GPx activity was assayed for by an established enzyme method, which is based on the GPx‐dependent reduction of tert‐butyl hydroperoxide (TBHP) by GSH, leading to the formation of GSSG, which is coupled to the reduction of GSSG back to GSH by glutathione reductase (GR) and the oxidation of NADPH to NADP^+[10] (Figure 1). Inhibition potencies of the compounds were ranked by their IC50 values; that is, concentration of the inhibitor at the inflection point in the sigmoidal log dose‐inhibition curve (Figure 4A), and are summarized for the pentathiepins and mercaptosuccinic acid (MSA) in Table 1.
GPx enzyme activity assay: To evaluate if the various compounds could inhibit GPx1, an enzymatic assay monitoring the activity of the bovine erythrocyte GPx was used as described previously.33 Bovine erythrocyte GPx is highly homologous to the human GPx1 (homology of 87 %)34 but much more affordable. In this assay, GPx reduces tert‐butylhydroperoxide (TBHP) followed by oxidation of glutathione (GSH) to the disulfide (GSSG), which in turn is regenerated to GSH by glutathione reductase (GR) with the consumption of NADPH. To each well of a UV‐transparent 96‐well plate were added 180 μL of a bovine erythrocyte GPx1 solution (0.125 U/mL) and 30 μL of prospective inhibitor in different concentrations diluted in DMF and incubated under shaking for 15 min at room temperature. Then 30 μL of stock solutions of GSH (2.5 mM) and baker's yeast GR plus NADPH (2 U/mL; 2.0 mM) were added. All stock solutions were prepared in potassium phosphate buffer (50 mM, pH 7.4, EDTA 1.1 mM, Triton‐X 0.01 %). The reaction was started by addition of TBHP solution (5 mM), giving final concentrations of 0.075 U/mL bovine erythrocyte GPx, 0.2 U/mL GR, 0.25 mM GSH, 0.2 mM NADPH and prospective inhibitor concentrations between 0.2–100 μM. The reaction was followed by the rate of decreasing absorption of the NADPH at λ=340 nm, measured every 15 s for ca. 20 min. The GPx activity related to untreated control was imported into the GraphPad Prism 6.0 software and the IC50 values were calculated by estimating the inflection point of the sigmoidal log concentration‐activity curves.

Turning to `CCOc1c2c(c3cnc4cc(C)c(C)cc4n13)SSSSS2` [Compound 4], in test [1], the change in morphology result is “membrane blebbing”. In test [2] (23 °C, n>3, 0.25 mM GSH, read-out: Enzyme inhibition IC50 (CI 95 %)), the IC50 stood at 2.44 µM. Moreover, the “potency at inhibiting GPx1 compared to MSA” value in test [2] (ratio of IC50 values) is “twice as potent as MSA”.
